Reference: ChEMBL document CHEMBL5444388, “Affinity Phenotypic Cellular Literature for EUbOPEN Chemogenomic Library” (2024)
Each block holds one molecule with its values, some of them ahead of it.

Assays:
[1] = molecular target: Serine/threonine-protein kinase pim-1 (Homo sapiens) (UniProt P11309); details: Affinity Phenotypic Cellular Source Knowledge https://ashpublications.org/blood/article/123/6/905/32601/AZD1208-a-potent-and-selective-pan-Pim-kinase
[2] = molecular target: Serine/threonine-protein kinase pim-3 (Homo sapiens) (UniProt Q86V86); details: Affinity Phenotypic Cellular Source Knowledge https://ashpublications.org/blood/article/123/6/905/32601/AZD1208-a-potent-and-selective-pan-Pim-kinase
[3] = molecular target: Serine/threonine-protein kinase pim-2 (Homo sapiens) (UniProt Q9P1W9); assay: Affinity Phenotypic Cellular interaction: (Antiproliferative activity against AML cell lines (EOL-1, KG-1a, Kasumi-3, MV4-11, MOLM-16)) EUB0001547a PIM2; assay type: functional; parameters: recommended concentration 100 nM; details: Affinity Phenotypic Cellular Source Knowledge https://ashpublications.org/blood/article/123/6/905/32601/AZD1208-a-potent-and-selective-pan-Pim-kinase
Serine/threonine-protein kinase pim-2 (Homo sapiens), sequence (Q9P1W9 whole entry, looked up): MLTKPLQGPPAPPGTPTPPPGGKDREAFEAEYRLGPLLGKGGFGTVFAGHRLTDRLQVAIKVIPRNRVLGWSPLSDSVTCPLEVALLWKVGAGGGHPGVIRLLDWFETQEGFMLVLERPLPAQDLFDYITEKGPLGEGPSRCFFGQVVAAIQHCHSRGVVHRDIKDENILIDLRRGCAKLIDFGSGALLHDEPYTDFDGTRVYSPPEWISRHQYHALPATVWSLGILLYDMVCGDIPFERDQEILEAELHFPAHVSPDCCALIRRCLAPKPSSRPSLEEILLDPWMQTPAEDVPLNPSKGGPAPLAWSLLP

[4] = molecular target: Protein-arginine deiminase type-4 (Homo sapiens, UniProt Q9UM07); assay type: functional
Protein-arginine deiminase type-4, sequence (Q9UM07 whole entry): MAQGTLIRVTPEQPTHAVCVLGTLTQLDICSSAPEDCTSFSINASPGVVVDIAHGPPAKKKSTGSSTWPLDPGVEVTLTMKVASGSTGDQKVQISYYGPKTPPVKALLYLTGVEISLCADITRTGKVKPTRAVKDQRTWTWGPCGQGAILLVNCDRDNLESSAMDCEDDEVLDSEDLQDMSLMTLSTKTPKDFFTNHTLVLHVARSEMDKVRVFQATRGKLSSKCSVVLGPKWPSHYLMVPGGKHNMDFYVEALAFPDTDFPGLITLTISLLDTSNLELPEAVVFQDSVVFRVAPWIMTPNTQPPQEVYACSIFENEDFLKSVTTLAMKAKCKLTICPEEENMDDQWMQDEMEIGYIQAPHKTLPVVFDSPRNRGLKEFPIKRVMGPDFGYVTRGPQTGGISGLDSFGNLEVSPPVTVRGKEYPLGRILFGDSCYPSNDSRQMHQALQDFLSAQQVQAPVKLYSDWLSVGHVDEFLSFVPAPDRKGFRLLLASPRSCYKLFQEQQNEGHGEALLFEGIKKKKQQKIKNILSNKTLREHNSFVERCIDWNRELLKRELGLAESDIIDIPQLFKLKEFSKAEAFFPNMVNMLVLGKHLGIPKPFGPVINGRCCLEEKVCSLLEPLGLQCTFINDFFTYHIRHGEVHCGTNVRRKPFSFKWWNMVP

[5] = molecular target: T1, MAP kinase-activated protein kinase 3 (Homo sapiens, UniProt Q16644); assay type: functional, cell-based, Monocyte
T1 sequence (Q16644 whole entry): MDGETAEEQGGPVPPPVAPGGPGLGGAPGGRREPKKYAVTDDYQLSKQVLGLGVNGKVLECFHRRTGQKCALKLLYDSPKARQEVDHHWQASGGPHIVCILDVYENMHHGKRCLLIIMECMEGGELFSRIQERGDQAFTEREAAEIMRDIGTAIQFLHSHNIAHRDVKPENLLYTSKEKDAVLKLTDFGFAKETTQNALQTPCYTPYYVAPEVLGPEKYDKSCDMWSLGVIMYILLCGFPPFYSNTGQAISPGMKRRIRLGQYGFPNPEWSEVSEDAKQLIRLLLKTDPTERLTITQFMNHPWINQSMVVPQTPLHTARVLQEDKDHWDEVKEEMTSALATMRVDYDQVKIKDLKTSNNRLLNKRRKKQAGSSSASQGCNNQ

[6] = molecular target: T1, MAP kinase-activated protein kinase 3; assay type: functional, cell-based, Monocyte; remark: listed apart in the source
[7] = molecular target: T2, MAP kinase-activated protein kinase 5 (Homo sapiens, UniProt Q8IW41); assay type: functional, cell-based, Monocyte
T2 sequence (Q8IW41 whole entry): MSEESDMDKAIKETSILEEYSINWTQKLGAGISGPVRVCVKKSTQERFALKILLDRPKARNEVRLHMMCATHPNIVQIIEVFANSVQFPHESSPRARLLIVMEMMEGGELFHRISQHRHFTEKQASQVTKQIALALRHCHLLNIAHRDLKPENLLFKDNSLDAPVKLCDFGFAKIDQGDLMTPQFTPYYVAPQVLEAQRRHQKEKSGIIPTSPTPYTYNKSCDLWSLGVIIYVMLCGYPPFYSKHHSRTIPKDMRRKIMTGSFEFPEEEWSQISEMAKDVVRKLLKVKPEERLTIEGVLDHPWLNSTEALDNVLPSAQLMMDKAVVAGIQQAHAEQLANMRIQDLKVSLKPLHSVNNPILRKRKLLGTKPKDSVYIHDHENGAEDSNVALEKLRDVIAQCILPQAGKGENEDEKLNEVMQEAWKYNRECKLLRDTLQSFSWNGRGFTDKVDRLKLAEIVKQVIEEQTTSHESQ

[8] = molecular target: T3, MAP kinase-activated protein kinase 2 (Homo sapiens, UniProt P49137); assay type: functional, cell-based, Monocyte
T3 sequence (P49137 whole entry): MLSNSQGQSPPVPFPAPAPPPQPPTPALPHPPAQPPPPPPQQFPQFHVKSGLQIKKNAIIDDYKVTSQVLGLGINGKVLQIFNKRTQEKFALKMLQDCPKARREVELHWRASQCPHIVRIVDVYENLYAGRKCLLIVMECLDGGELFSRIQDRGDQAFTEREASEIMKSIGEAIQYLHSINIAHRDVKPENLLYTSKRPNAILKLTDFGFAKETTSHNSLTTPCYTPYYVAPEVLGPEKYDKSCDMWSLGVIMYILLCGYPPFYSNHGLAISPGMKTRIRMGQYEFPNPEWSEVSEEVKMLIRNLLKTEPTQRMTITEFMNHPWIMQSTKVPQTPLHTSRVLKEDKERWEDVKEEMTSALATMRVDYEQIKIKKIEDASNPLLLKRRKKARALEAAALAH

[9] = molecular target: T2, MAP kinase-activated protein kinase 5; assay type: functional, cell-based, Monocyte; remark: listed apart in the source
[10] = molecular target: T3, MAP kinase-activated protein kinase 2; assay type: functional, cell-based, Monocyte; remark: listed apart in the source
[11] = molecular target: T3, MAP kinase-activated protein kinase 2; assay type: functional, cell-based, Monocyte; remark: listed apart in the source
[12] = molecular target: T3, MAP kinase-activated protein kinase 2; assay type: functional, cell-based, Monocyte; remark: listed apart in the source
[13] = molecular target: T2, MAP kinase-activated protein kinase 5; assay type: functional, cell-based, Monocyte; remark: listed apart in the source
[14] = molecular target: T1, MAP kinase-activated protein kinase 3; assay type: functional, cell-based, Monocyte; remark: listed apart in the source
[15] = molecular target: 5'-AMP-activated protein kinase catalytic subunit alpha-1 (Homo sapiens, UniProt Q13131); assay: Affinity Phenotypic Cellular interaction: (Cellular mechanistic pACC assay using IMR-32 neuroblastoma cells) EUB0000311b PRKAA1; assay type: functional, cell-based; parameters: mode of action Inhibitor, recommended concentration 100 nM
5'-AMP-activated protein kinase catalytic subunit alpha-1, sequence (Q13131 whole entry): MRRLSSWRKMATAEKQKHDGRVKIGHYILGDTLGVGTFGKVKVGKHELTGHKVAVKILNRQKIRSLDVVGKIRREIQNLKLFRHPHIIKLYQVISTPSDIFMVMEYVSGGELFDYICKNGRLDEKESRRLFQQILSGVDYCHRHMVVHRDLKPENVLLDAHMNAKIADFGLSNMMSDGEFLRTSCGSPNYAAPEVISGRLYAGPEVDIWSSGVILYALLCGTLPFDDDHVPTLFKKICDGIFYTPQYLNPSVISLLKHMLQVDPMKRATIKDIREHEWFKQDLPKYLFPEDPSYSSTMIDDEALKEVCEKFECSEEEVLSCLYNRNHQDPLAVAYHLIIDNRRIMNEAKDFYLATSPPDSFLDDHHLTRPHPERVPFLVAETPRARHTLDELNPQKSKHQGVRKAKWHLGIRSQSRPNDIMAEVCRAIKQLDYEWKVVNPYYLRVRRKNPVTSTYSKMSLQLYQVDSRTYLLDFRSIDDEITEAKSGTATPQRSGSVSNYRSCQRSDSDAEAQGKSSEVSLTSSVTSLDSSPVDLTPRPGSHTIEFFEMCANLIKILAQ

[16] = molecular target: Tyrosine-protein kinase BTK (Homo sapiens) (UniProt Q06187); details: CWR22R, Affinity Phenotypic Cellular Source Knowledge https://pubmed.ncbi.nlm.nih.gov/23594111/
Tyrosine-protein kinase BTK (Homo sapiens), sequence (Q06187 whole entry): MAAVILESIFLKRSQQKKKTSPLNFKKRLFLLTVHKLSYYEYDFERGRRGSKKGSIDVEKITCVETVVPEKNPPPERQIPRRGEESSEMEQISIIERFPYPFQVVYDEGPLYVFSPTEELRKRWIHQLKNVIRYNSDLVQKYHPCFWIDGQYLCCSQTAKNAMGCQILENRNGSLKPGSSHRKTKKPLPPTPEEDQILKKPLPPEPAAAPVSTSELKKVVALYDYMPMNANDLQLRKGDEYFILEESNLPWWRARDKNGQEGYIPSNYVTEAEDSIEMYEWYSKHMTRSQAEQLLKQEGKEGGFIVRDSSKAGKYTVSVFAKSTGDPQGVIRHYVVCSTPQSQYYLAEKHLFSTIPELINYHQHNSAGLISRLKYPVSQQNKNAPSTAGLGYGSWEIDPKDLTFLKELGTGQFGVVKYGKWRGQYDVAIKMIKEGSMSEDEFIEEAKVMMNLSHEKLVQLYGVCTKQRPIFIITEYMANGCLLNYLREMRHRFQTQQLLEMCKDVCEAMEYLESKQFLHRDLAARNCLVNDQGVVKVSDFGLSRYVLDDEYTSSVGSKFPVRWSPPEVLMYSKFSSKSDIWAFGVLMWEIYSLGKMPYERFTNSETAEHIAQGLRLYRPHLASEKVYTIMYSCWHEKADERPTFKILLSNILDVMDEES

[17] = molecular target: T4, Cytoplasmic tyrosine-protein kinase BMX (Homo sapiens) (UniProt P51813); assay: Affinity Phenotypic Cellular interaction: (Antiproliferative activity assay (prostate cancer cell line, DU-145)) EUB0000045b BMX; assay type: functional, cell-based; parameters: recommended concentration 1 uM; details: Affinity Phenotypic Cellular Source Knowledge https://pubmed.ncbi.nlm.nih.gov/23594111/
T4 sequence (whole entry): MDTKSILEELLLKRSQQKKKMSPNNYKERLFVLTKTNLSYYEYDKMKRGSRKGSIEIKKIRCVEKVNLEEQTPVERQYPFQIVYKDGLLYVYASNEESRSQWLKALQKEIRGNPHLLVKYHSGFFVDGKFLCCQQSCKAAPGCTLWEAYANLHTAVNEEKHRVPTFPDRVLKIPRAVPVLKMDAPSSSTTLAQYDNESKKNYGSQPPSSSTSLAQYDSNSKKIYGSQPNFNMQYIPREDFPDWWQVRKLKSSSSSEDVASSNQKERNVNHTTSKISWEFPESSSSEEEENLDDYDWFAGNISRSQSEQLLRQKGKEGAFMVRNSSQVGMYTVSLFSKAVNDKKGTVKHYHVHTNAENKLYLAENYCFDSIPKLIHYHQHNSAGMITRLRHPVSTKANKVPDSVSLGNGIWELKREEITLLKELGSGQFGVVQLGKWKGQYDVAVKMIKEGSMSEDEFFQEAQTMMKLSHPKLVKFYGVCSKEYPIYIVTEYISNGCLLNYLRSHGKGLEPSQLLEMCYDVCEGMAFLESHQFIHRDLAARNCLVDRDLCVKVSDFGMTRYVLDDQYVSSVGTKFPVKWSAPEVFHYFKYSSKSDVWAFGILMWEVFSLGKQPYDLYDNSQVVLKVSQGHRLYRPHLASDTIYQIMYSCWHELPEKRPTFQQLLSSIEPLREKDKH

[18] = molecular target: Tyrosine-protein kinase BTK (Homo sapiens) (UniProt Q06187); details: DU-145, Affinity Phenotypic Cellular Source Knowledge https://pubmed.ncbi.nlm.nih.gov/23594111/
[19] = molecular target: Tyrosine-protein kinase BTK (Homo sapiens) (UniProt Q06187); details: LNCaP C4-2, Affinity Phenotypic Cellular Source Knowledge https://pubmed.ncbi.nlm.nih.gov/23594111/
[20] = molecular target: T4, Cytoplasmic tyrosine-protein kinase BMX (Homo sapiens); assay: Affinity Phenotypic Cellular interaction: (Antiproliferative activity assay (prostate cancer cell line, VCAP)) EUB0000045b BMX; assay type: functional, cell-based; parameters: recommended concentration 1 uM; details: Affinity Phenotypic Cellular Source Knowledge https://pubmed.ncbi.nlm.nih.gov/23594111/
[21] = molecular target: T4, Cytoplasmic tyrosine-protein kinase BMX (Homo sapiens); assay: Affinity Phenotypic Cellular interaction: (Antiproliferative activity assay (prostate cancer cell line, C4-2)) EUB0000045b BMX; assay type: functional, cell-based; parameters: recommended concentration 1 uM; details: LNCaP C4-2, Affinity Phenotypic Cellular Source Knowledge https://pubmed.ncbi.nlm.nih.gov/23594111/
[22] = molecular target: Tyrosine-protein kinase BTK (Homo sapiens) (UniProt Q06187); details: PC-3, Affinity Phenotypic Cellular Source Knowledge https://pubmed.ncbi.nlm.nih.gov/23594111/
[23] = molecular target: T4, Cytoplasmic tyrosine-protein kinase BMX (Homo sapiens); assay: Affinity Phenotypic Cellular interaction: (Antiproliferative activity assay (prostate cancer cell line, RV-1)) EUB0000045b BMX; assay type: functional, cell-based; parameters: recommended concentration 1 uM; details: CWR22R, Affinity Phenotypic Cellular Source Knowledge https://pubmed.ncbi.nlm.nih.gov/23594111/
[24] = molecular target: T4, Cytoplasmic tyrosine-protein kinase BMX (Homo sapiens); assay: Affinity Phenotypic Cellular interaction: (Antiproliferative activity against Tel-kinase transformed Cys496Ser Ba/F3 cell line, TEL-BMX) EUB0000045b BMX; assay type: functional, cell-based; parameters: recommended concentration 1 uM; details: BaF3, Affinity Phenotypic Cellular Source Knowledge https://pubmed.ncbi.nlm.nih.gov/23594111/
[25] = molecular target: Tyrosine-protein kinase BTK (Homo sapiens) (UniProt Q06187); details: VCaP, Affinity Phenotypic Cellular Source Knowledge https://pubmed.ncbi.nlm.nih.gov/23594111/
[26] = molecular target: T4, Cytoplasmic tyrosine-protein kinase BMX (Homo sapiens); assay: Affinity Phenotypic Cellular interaction: (Antiproliferative activity against Tel-kinase wt Ba/F3 cell line) EUB0000045b BMX; assay type: functional, cell-based; parameters: recommended concentration 1 uM; details: BaF3, Affinity Phenotypic Cellular Source Knowledge https://pubmed.ncbi.nlm.nih.gov/23594111/
[27] = molecular target: T4, Cytoplasmic tyrosine-protein kinase BMX (Homo sapiens); assay: Affinity Phenotypic Cellular interaction: (Antiproliferative activity against Tel-kinase transformed Ba/F3 cell line, TEL-BMX) EUB0000045b BMX; assay type: functional, cell-based; parameters: recommended concentration 1 uM; details: BaF3, Affinity Phenotypic Cellular Source Knowledge https://pubmed.ncbi.nlm.nih.gov/23594111/
[28] = molecular target: Tyrosine-protein kinase BTK (Homo sapiens) (UniProt Q06187); details: BaF3, Affinity Phenotypic Cellular Source Knowledge https://pubmed.ncbi.nlm.nih.gov/23594111/
[29] = molecular target: T4, Cytoplasmic tyrosine-protein kinase BMX (Homo sapiens); assay: Affinity Phenotypic Cellular interaction: (Antiproliferative activity assay (prostate cancer cell line, PC-3)) EUB0000045b BMX; assay type: functional, cell-based; parameters: recommended concentration 1 uM; details: Affinity Phenotypic Cellular Source Knowledge https://pubmed.ncbi.nlm.nih.gov/23594111/
[30] = molecular target: Activated CDC42 kinase 1 (Homo sapiens, UniProt Q07912); assay type: functional, cell-based, T-cell
Activated CDC42 kinase 1, sequence (Q07912 whole entry): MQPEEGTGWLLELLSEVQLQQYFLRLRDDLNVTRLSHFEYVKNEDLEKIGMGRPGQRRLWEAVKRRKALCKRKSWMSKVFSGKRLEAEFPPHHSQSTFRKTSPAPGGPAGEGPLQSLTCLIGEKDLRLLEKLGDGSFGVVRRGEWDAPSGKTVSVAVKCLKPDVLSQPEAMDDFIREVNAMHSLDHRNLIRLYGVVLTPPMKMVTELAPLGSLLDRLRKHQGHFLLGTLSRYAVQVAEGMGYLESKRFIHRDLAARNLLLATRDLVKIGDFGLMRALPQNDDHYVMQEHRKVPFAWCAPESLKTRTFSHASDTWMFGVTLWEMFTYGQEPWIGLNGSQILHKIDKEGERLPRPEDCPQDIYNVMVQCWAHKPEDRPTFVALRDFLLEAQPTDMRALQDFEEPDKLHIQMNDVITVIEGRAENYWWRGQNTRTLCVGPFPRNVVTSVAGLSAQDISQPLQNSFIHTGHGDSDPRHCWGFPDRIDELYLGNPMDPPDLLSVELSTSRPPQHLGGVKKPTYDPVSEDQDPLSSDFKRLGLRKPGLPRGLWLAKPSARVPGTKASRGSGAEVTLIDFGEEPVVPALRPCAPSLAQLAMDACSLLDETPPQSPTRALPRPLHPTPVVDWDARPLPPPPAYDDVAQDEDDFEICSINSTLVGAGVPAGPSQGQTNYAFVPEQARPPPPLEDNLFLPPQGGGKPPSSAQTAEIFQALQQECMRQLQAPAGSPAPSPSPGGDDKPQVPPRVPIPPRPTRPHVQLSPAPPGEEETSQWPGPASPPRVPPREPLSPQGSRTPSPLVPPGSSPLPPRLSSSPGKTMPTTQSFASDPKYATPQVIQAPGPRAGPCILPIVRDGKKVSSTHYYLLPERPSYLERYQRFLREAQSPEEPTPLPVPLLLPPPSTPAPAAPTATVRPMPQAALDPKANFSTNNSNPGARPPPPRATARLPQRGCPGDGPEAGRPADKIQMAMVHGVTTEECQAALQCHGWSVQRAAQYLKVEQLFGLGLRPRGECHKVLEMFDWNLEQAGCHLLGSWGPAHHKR

Serine/threonine-protein kinase pim-1 (Homo sapiens), sequence (P11309 whole entry, looked up): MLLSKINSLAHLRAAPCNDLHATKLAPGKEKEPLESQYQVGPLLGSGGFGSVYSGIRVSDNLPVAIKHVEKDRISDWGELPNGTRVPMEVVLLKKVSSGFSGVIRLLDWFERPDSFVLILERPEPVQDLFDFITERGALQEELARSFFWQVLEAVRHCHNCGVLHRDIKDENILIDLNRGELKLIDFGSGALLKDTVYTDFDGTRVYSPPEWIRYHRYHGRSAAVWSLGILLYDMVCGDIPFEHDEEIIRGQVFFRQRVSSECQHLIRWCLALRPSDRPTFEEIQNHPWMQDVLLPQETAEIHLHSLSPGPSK

SMILES: N[C@@H]1CCCN(c2c(/C=C3\SC(=O)NC3=O)cccc2-c2ccccc2)C1
- GI50 [1]: < 1000 nM
- GI50 [2]: < 1000 nM
- GI50 [3]: < 1000 nM

SMILES: Cc1ccc(-c2ccc3c(ccc4sc5c(c43)NC[C@@H](C)NC5=O)n2)cn1
- IC50 [5]: 2090 nM
- IC50 [6]: 2780 nM
- IC50 [7]: 2780 nM
- IC50 [8]: 2780 nM
- IC50 [9]: 1260 nM
- IC50 [10]: 130 nM
- IC50 [11]: 1260 nM
- IC50 [12]: 2090 nM
- IC50 [13]: 2090 nM
- IC50 [14]: 1260 nM

SMILES: c1ccc(-c2oc3ncnc(NC[C@@H]4CCCO4)c3c2-c2ccccc2)cc1
- IC50 [30]: 2410 nM

Now from value to molecule:

- IC50 [4]: 50 nM
SMILES: CCn1c(-c2nc3cc(C(=O)N4CCCC(N)C4)ccc3n2C)cc2ccccc21 (stereo not given)

- EC50 [15]: 150 nM
SMILES: CCc1ccccc1C(=O)Nc1n[nH]c2c(C)c(F)c(C3C(C#N)=C(C)N(C)C(C)=C3C#N)cc12 [BAY-3827]

- GIC50 [16]: 2540 nM
- GIC50 [17]: 4.38 µM
- GIC50 [18]: 4.38 µM
- GIC50 [19]: > 10 µM
- GIC50 [20]: 2460 nM
- GIC50 [21]: > 10 µM
- GIC50 [22]: 5.37 µM
- GIC50 [23]: 2540 nM
- GIC50 [24]: > 50 µM
- GIC50 [25]: 2460 nM
- GIC50 [26]: 10 µM
- GIC50 [27]: 25 nM
- GIC50 [28]: > 10 µM
- GIC50 [29]: 5.37 µM
SMILES: C=CC(=O)Nc1cc(-n2c(=O)ccc3cnc4ccc(-c5ccc(NS(C)(=O)=O)cc5)cc4c32)ccc1C
